From ChEMBL document CHEMBL1144237, “Novel HCV NS5B polymerase inhibitors derived from 4-(1',1'-dioxo-1',4'-dihydro-1'lambda(6)-benzo[1',2',4']thiadiazin-3'-yl)-5-hydroxy-2H-pyridazin-3-ones. Part 5: Exploration of pyridazinones containing 6-amino-substituents” (Bioorg Med Chem Lett, 2008) come the findings set out here.

The Papp is a coefficient for how fast a substance crosses the barrier.

This series in a line: Apparent permeability across human Caco-2 cell membrane. The format is ADME, cell-based. Background: Caco-2 monolayers are a common model of the intestinal barrier.
Turning to `CC(C)CCn1nc(-c2cccs2)c(O)c(C2=Nc3ccc(NS(C)(=O)=O)cc3S(=O)(=O)N2)c1=O`, the Papp is 0.02 ×10⁻⁶ cm/s. The result for `CS(=O)(=O)Nc1ccc2c(c1)S(=O)(=O)N=C(c1c(O)c(N3CCCC3)nn(CCC3CC3)c1=O)N2` reads 0.22 ×10⁻⁶ cm/s; that for `CC(C)(C)CCn1nc(N2CCCC2)c(O)c(C2=NS(=O)(=O)c3cc(NS(C)(=O)=O)ccc3N2)c1=O`, 0.37 ×10⁻⁶ cm/s. The same measure for `CC(C)CCn1nc(N(C)C(C)C)c(O)c(C2=NS(=O)(=O)c3cc(NS(C)(=O)=O)ccc3N2)c1=O`: 0.77 ×10⁻⁶ cm/s. On to `CC(C)CCn1nc(N2CCOCC2)c(O)c(C2=NS(=O)(=O)c3cc(NS(C)(=O)=O)ccc3N2)c1=O`, for which the Papp worked out at 0.021 ×10⁻⁶ cm/s. The result for `CC(C)CCn1nc(N2CCCC2)c(O)c(C2=Nc3ccc(NS(C)(=O)=O)cc3S(=O)(=O)N2)c1=O` reads 0.32 ×10⁻⁶ cm/s; that for `CCN(CC)c1nn(CCC(C)C)c(=O)c(C2=NS(=O)(=O)c3cc(NS(C)(=O)=O)ccc3N2)c1O`, 0.3 ×10⁻⁶ cm/s; that for `CCCN(C)c1nn(CCC(C)C)c(=O)c(C2=NS(=O)(=O)c3cc(NS(C)(=O)=O)ccc3N2)c1O`, 0.12 ×10⁻⁶ cm/s.
